In one series the test system is haem polymerization. Put plainly: haem polymerization inhibitory activity (HPIA) assay. The series is classed as biochemical. As to conditions: haematin, pH 2.6, 37 °C, 24 h; read-out: IC50, inhibition of haem polymerization formation. The protocol:
Antimalarial activity was tested to (−)-6-epi-artemisinin (2) based on inhibition of haem polymerization. Haem is a by-product of haemoglobin digestion […]. It is potentially toxic to biological membranes and parasite enzymes, and it is thus sequestered in the form of an insoluble crystalline polymer, haemozoin or malaria pigment. Identifying molecules that interfere with haem polymerization is the basic principle of the assay. Haem can be polymerized in vitro, in the absence of proteins, from a solution of haematin at 70 °C or 37 °C at acidic pH. In vitro quantification of haem polymerization allows the identification of molecules with haem polymerization inhibitory activity (HPIA) and the assessment of their HPIA, relative to that of standard antimalarials like chloroquine.
100 microliters of a 0.5 mM solution of haematin, previously dissolved in 0.1 M NaOH, was distributed in 96-well U-bottomed microplates. […] The DMSO-soluble fraction (fraction II) was collected, and the pellet, consisting of a pure precipitate of haematin, was dissolved in 0.1 M NaOH (fraction III) for spectroscopic quantification. […] The amount of haematin was determined by measuring the absorbance at 405 nm using a microtiter plate reader. […]
Statistical analysis. […] Data were analyzed by Excel Microsoft. […]

The subject of series [1] is W2 apoptotic competent and D3 apoptotic deficient mouse epithelial cell lines. Put plainly: apoptosis induction assay (MTT, W2 vs D3 cells). The class given is cell-based. As to conditions: 48 h. The source says:
However, the antiproliferative activity of different artemisinin isomers has never been studied in the past. […] To address this subject, we performed an apoptosis induction assay with compound 2 in order to evaluate the effect of the change in configurations on this activity. To develop a cell-based assay specific for the identification of apoptosis-inducing compounds that are potential antiproliferative agents, we used two genetically engineered mouse epithitial cell lines: W2 apoptotic competent and D3 apoptotic deficient. Compounds that have the capacity to kill W2 and not D3 cells are consistent with proapoptotic, potentially antiproliferative activity. Compounds that meet these criteria activate apoptosis upstream in a pathway that requires Bax and Bak. […]
Apoptosis induction in the presence of compound 2 was carried out as follows. […] Cell viability was determined using a modification of the MTT assay, where the reduction of yellow tertazolium salt (MTT-3-(4,5-Dimethylthiazol-2-yl)-2,5) to purple formazan indicates mitochondrial activity, and thus cell viability. […] After 30 min incubation at 37 °C with shaking, absorbance was read at 570 nm on a Spectra MAX 250 (Molecular Devices) plate reader. Differential growth from time 0 to 48 h was calculated. […]

Series [2] concerns SARS-CoV-2. Put plainly: microbe, parasite or virus in culture. The series is classed as cell-based. As to conditions: Vero E6 cells; for EC50: MOI 0.01, 24 h post infection, read-out: EC50, SARS-CoV-2 inhibitory assay.
In a further series the test system is Vero E6 cells. Conditions: read-out: CC50, cytotoxicity against Vero E6 cells; CCK8.
The next series in a line: in vitro. As to conditions: African green monkey, CC50, cytotoxicity against Vero E6 cells, CCK8.
The next series relates to MCF breast cancer cells. As to conditions: read-out: IC50, antiproliferative activity, cited from earlier work.
Series [3] concerns SARS-CoV-2. Set-up: method as in PMID 32786284. As to conditions: read-out: EC50, inhibitory effect on SARS-CoV-2; cited from earlier work.

Data on five compounds can be found in publication PMC8472513, “(−)-6-epi-Artemisinin, a Natural Stereoisomer of (+)-Artemisinin in the Opposite Enantiomeric Series, from the Endemic Madagascar Plant Saldinia proboscidea, an Atypical Source” (Molecules, 2021).

Each structure is given as a SMILES string. Like-named read-outs stand apart in the source and are kept apart here.

As for `CCN(CC)CCCC(C)Nc1ccnc2cc(Cl)ccc12` (stereo not drawn) [chloroquine, reference compound], in the series with haem polymerization, the IC50 is 0.018 ± 1e-06 µM.
By EC50 is commonly meant the concentration at which the effect is half-maximal. For orientation: CC50 means the concentration at which the toxic effect on the cells reaches its halfway point. `CC1CCC2C(C)C(=O)OC3OC4(C)CCC1C32OO4` (single isomer, unassigned; (-)) [compound 2, (−)-6-epi-artemisinin]: the IC50 in series [1] (Mus musculus, Epithelial cell, read-out: IC50, induction of apoptosis, W2/D3 cells, 48 h, MTT) turned out to be 10 µM; in series [1] (read-out: IC50, induction of apoptosis, W2/D3 cells, MTT) it was 11 ± 0.71 µM; in the series on haem polymerization, 0.0035 ± 2e-06 µM. Moreover, in the series on SARS-CoV-2 [2] (Severe acute respiratory syndrome coronavirus 2, Vero C1008, 24 h), the 50% effective concentration (EC50) was 49 ± 0.32 µM. Besides, the “inhibition of growth of SARS-CoV-2 (in words)” value (shortened to “inhibition”) with SARS-CoV-2 [2] is “inhibited the growth of SARS-CoV-2”. Also, the cytotoxic concentration (CC50) in the series on Vero E6 cells is greater than 250 µM; in the series “in vitro”, greater than 200 µM.
For the compound `CC1CCC2C(C)C(=O)OC3OC4(C)CCC1C32OO4` (stereo not drawn) [compound 3, 9 epimer of 2], in the series with SARS-CoV-2 [2], the “inhibition” value is given as “inhibited the growth of SARS-CoV-2” and the concentration giving a half-maximal response (EC50) is 54 ± 0.27 µM. Moreover, the CC50 in the series on Vero E6 cells was greater than 200 µM.
`C[C@H]1[C@@H](O)O[C@@H]2O[C@@]3(C)CC[C@H]4[C@H](C)CC[C@@H]1[C@@]24OO3` [dihydroartemisinin]: the IC50 in the series on MCF breast cancer cells (these same cells (MCF)) is 5.27 ± 0.01 µM.
On to `C[C@@H]1CC[C@H]2[C@@H](C)C(=O)O[C@@H]3O[C@@]4(C)CC[C@@H]1[C@]32OO4` [compound 1, (+)-artemisinin], for which the “inhibition” value in the series on SARS-CoV-2 [2] is “inhibited the growth of SARS-CoV-2”. For the same compound, the EC50 in the series on SARS-CoV-2 [3] was 64 µM. Moreover, the IC50 in the series with MCF breast cancer cells (MCF breast cancer cells) was 9.13 ± 0.07 µM.
